Source: PMC8037336, “Metabolite Profiling and Characterization of LW6, a Novel HIF-1α Inhibitor, as an Antitumor Drug Candidate in Mice” (Molecules, 2021)
Where “and” joins values, the source holds several entries; their conditions need not be identical. Equal entries are not always repeated.

Assay: Metabolite profiling and semi-quantitation (peak area-time AUC) of LW6 and its metabolites in mouse plasma after a single i.v. or oral dose of LW6
Format: in vivo, male ICR mice
Settings: for Relative % of Parent AUC0→t (i.v.): AUC0→t relative to AUC0→t of parent after i.v. administration; for Relative % of Total Metabolite AUC0→t: relative to sum of AUC0→t of all detected metabolites; for Relative AUC of metabolite versus parent AUC (i.v.): versus AUC0→t of LW6 administered intravenously; for Relative % of Parent AUC0→t (p.o.): AUC0→t relative to AUC0→t of parent after i.v. administration (5 mg/kg); for Average AUC0→t (Peak Intensity, Cps) / Average AUC0→t (Peak inTensity, cps): mouse plasma, n = 3, 0-24 h, LC-MS/MS peak intensity-time curve; for Average AUC0→t (Peak Intensity, Cps): LW6 5 mg/kg i.v.; for Average AUC0→t (Peak inTensity, cps): LW6 5 mg/kg p.o.; for Detection of metabolite in mouse plasma: LW6 5 mg/kg i.v. or p.o., pMRM-IDA-EPI, S/N > 3
Description: To determine the in vivo metabolism of LW6, male ICR mice were administered a single intravenous (i.v., 5 mg/kg) or oral dose (p.o., 5 mg/kg) of LW6. Serial blood samples (Section 4.2) were collected and metabolite identification was performed using a pMRM-IDA-EPI scan method in negative ion mode on a QTRAP.
Animal experiments were approved by the Institutional Animal Care and Use Committee of the Korea Research Institute of Bioscience and Biotechnology (Chungbuk, Korea; KRIBB-AEC-15005, 9 January 2015) and performed in compliance with the National Institutes of Health Guidelines for the care and use of laboratory animals and Korean national laws for ethical conduct in the care and use of animals and the rules of Good Laboratory Practice. Six specific pathogen-free (SPF) male ICR mice (8 weeks, 31.5–40.1 g) were purchased from Koatech Co. (Pyeongtaek, Kyonggi, Korea) and maintained in an SPF environment at 22 ± 2 °C with a 12 h light/dark cycle and relative humidity of 50 ± 10%. Food (Teklad Global rodent diet 2018S, ENVIGO, Indianapolis, IN, USA) and water were provided ad libitum, unless noted otherwise. Animals were acclimated to the testing facility for 1 week before being used in the study. The animal group for oral dosing was fasted overnight before the study and fed again 4 h after dosing. Mice were administered a single dose of the test substance intravenously via tail vein injection (n = 3, 5 mg/kg) or orally by disposable syringe with an oral zonde (n = 3, 5 mg/kg). Dosing solutions were prepared in dimethylacetamide/Cremophor EL/20% v/v (2-hydroxypropyl)-β-cyclodextrin in de-ionized water (1/1/3 v/v/v; i.v. or p.o. for LW6) and administered at a dose volume of 5 mL/kg for both i.v. and p.o. Peng et al. method was used for serial blood sampling in mice. Briefly, blood samples (~50 µL each) were collected via the saphenous vein of free alive mice at the time points including 0, 0.25, 0.5, 0.75, 1, 2, 4, 6, 8, and 24 h after oral administration or 0, 0.083, 0.167, 0.25, 0.5, 1, 2, 4, 6, 8, and 24 h after intravenous administration. These samples were collected into Microvette® capillary tubes at predetermined time points. The blood samples were centrifuged under refrigeration at 12,000× g for 3 min and then stored frozen at −20 °C until analysis.
Plasma samples were prepared for analysis by the protein precipitation method. A simple protein precipitation is to remove proteins in plasma samples with organic solvents. Briefly, 15 µL of each plasma sample was transferred to a PCR tube (Axygen, Union City, CA, USA). Four volumes of acetonitrile containing the analytical internal standard, 4-methylumbelliferone, were added, and the resulting mixture was vortexed for 10 min on a multi-tube vortexer (VWR International, Radnor, PA, USA). The samples were sonicated for 30 min at room temperature. The tubes were centrifuged at 12,000× g for 10 min, and the supernatant was analyzed for the test substance. Sample analysis was performed with a 3200 Q TRAP LC/MS/MS system (Applied Biosystems, Foster City, CA, USA) in negative MRM mode. The analytical methods are described in the following sections.
The LC-MS/MS system consisted of an Agilent 1100 series HPLC system (Agilent Technologies, Santa Clara, CA, USA) equipped with an API 3200 QTRAP hybrid triple quadrupole-linear ion trap mass spectrometer with a Turbo V^TM ion spray. All samples were analyzed on an Acquisition mode and data were processed using Analyst® software (version 1.4.2, Applied Biosystems, Foster City, CA, USA). The sample injection volume was 10 µL, and separation was performed using an Atlantis dC18 column (50 × 2.1 mm i.d., 3 µm, Waters, Milford, MA, USA) with a SecurityGuard^TM C18 guard column (2.0 × 4.0 mm i.d., Phenomenex, Torrance, CA, USA) maintained at room temperature. […]

Compound	Relative % of Parent AUC0→t (i.v.) (after LW6 5 mg/kg i.v.) [%]	Relative % of Total Metabolite AUC0→t (after LW6 5 mg/kg i.v.)	Relative % of Total Metabolite AUC0→t (after LW6 5 mg/kg i.v., listed as APA (M7)) [%]	Relative AUC of metabolite versus parent AUC (i.v.) (after LW6 5 mg/kg i.v.)	Relative % of Parent AUC0→t (p.o.) (after LW6 5 mg/kg p.o.) [%]	Relative % of Total Metabolite AUC0→t (after LW6 5 mg/kg p.o.)	Relative % of Total Metabolite AUC0→t (after LW6 5 mg/kg p.o., listed as APA (M7)) [%]	Relative AUC of metabolite versus parent AUC (i.v.) (after LW6 5 mg/kg p.o.) [fold]	Average AUC0→t (Peak Intensity, Cps)	Average AUC0→t (Peak inTensity, cps)	Relative % of Parent AUC0→t (i.v.) (after LW6 5 mg/kg i.v., 5 mg/kg) [%]	Relative % of Parent AUC0→t (p.o.) (after LW6 5 mg/kg p.o., 5 mg/kg)	Detection of metabolite in mouse plasma
O=C(O)COc1ccc(C23CC4CC(CC(C4)C2)C3)cc1 [APA, 2-(4-((3r,5r,7r)-adamantan-1-yl)phenoxy)acetic acid]	1877.92	92.1% and 92%	92.09	approximately 19 fold	1686.37	93.3% and 93%	93.32	~17	19,697,150 cps	17,688,080 cps	–	–	–
COC(=O)c1ccc(O)c(NC(=O)COc2ccc(C34CC5CC(CC(C5)C3)C4)cc2)c1 [LW6]	–	–	–	–	–	–	–	–	1,048,883 cps	28,735 cps	100	2.7% and 2.74%	–
O=C(COc1ccc(C23CC4CC(CC(C4)C2)C3)cc1)Nc1cc(C(=O)O)ccc1O [M9]	0.73	0.04%	–	–	–	–	–	–	7672 cps	–	–	–	only detected in plasma samples obtained from intravenous dosing
Oc1ccc(C23CC4CC(CC(C4)C2)C3)cc1 [M12]	2.99	0.15%	–	–	–	–	–	–	31,345 cps	–	–	–	only detected in plasma samples obtained from intravenous dosing
